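1) Cells in 96-well plates. 2) Compound, 48 h, 5 concentrations. 3) Linear interpolation between surrounding doses. 4) Unreached endpoint = highest concentration. Definition used: TGI = concentration required for complete inhibition of growth.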
Tests used:
Assay in all cases: NCI anticancer screen, dose series, 48 h
[1] = test system: NCI-H522 lung
[2] = test system: NCI-H460 lung
[3] = test system: LOX IMVI melanoma
[4] = test system: HCC-2998 colon
[5] = test system: MALME-3M melanoma
[6] = test system: SNB-19 CNS
[7] = test system: A498 renal
[8] = test system: CAKI-1 renal
[9] = test system: OVCAR-4 ovarian
[10] = test system: SR leukemia
[11] = test system: K-562 leukemia
[12] = test system: HOP-18 NSCLC
[13] = test system: SF-268 CNS
[14] = test system: OVCAR-5 ovarian
[15] = test system: OVCAR-8 ovarian
[16] = test system: SK-MEL-2 melanoma
[17] = test system: HL-60(TB) leukemia
[18] = test system: SW-620 colon
[19] = test system: SN12C renal
[20] = test system: ACHN renal
[21] = test system: M14 melanoma
[22] = test system: LXFL 529 NSCLC
[23] = test system: SF-539 CNS
[24] = test system: IGROV1 ovarian
[25] = test system: KM20L2 colon
[26] = test system: CCRF-CEM leukemia
[27] = test system: SNB-78 CNS
[28] = test system: DLD-1 colon
[29] = test system: EKVX NSCLC
[30] = test system: SK-MEL-5 melanoma
[31] = test system: M19-MEL melanoma
[32] = test system: COLO 205 colon
[33] = test system: HOP-62 NSCLC
[34] = test system: UO-31 renal
[35] = test system: RXF 393 renal
[36] = test system: UACC-257 melanoma
[37] = test system: SNB-75 CNS
[38] = test system: A549 NSCLC
[39] = test system: HT29 colon
[40] = test system: SK-OV-3 ovarian
[41] = test system: HCT-15 colon
[42] = test system: TK-10 renal
[43] = test system: OVCAR-3 ovarian
[44] = test system: MOLT-4 leukemia
[45] = test system: UACC-62 melanoma
[46] = test system: RXF-631 renal
[47] = test system: SF-295 CNS
[48] = test system: DMS 273 small cell lung
[49] = test system: KM12 colon
[50] = test system: XF 498 CNS
[51] = test system: 786-0 renal
[52] = test system: NCI-H23 lung
[53] = test system: HCT-116 colon
[54] = test system: SK-MEL-28 melanoma
[55] = test system: U251 CNS
[56] = test system: NCI-H226 lung
[57] = test system: RPMI-8226 leukemia
[58] = test system: HOP-92 NSCLC
[59] = test system: DMS 114 small cell lung

Structure (SMILES): O=C(/C=C/c1ccccc1O)c1cccs1
- TGI [1]: > 100 µM
- TGI [2]: > 100 µM
- TGI [3]: > 100 µM
- TGI [4]: > 100 µM
- TGI [5]: > 100 µM
- TGI [6]: > 100 µM
- TGI [7]: 45.5 µM
- TGI [8]: > 100 µM
- TGI [9]: > 100 µM
- TGI [10]: > 100 µM
- TGI [11]: > 100 µM
- TGI [12]: > 100 µM
- TGI [13]: > 100 µM
- TGI [14]: > 100 µM
- TGI [15]: > 100 µM
- TGI [16]: > 100 µM
- TGI [17]: > 100 µM
- TGI [18]: > 100 µM
- TGI [19]: > 100 µM
- TGI [20]: > 100 µM
- TGI [21]: > 100 µM
- TGI [22]: > 100 µM
- TGI [23]: > 100 µM
- TGI [24]: > 100 µM
- TGI [25]: > 100 µM
- TGI [26]: > 100 µM
- TGI [27]: > 100 µM
- TGI [28]: > 100 µM
- TGI [29]: > 100 µM
- TGI [30]: > 100 µM
- TGI [31]: > 100 µM
- TGI [32]: > 100 µM
- TGI [33]: > 100 µM
- TGI [34]: > 100 µM
- TGI [35]: > 100 µM
- TGI [36]: > 100 µM
- TGI [37]: > 100 µM
- TGI [38]: > 100 µM
- TGI [39]: > 100 µM
- TGI [40]: > 100 µM
- TGI [41]: > 100 µM
- TGI [42]: > 100 µM
- TGI [43]: > 100 µM
- TGI [44]: > 100 µM
- TGI [45]: > 100 µM
- TGI [46]: > 100 µM
- TGI [47]: > 100 µM
- TGI [48]: > 100 µM
- TGI [49]: > 100 µM
- TGI [50]: > 100 µM
- TGI [51]: > 100 µM
- TGI [52]: > 100 µM
- TGI [53]: > 100 µM
- TGI [54]: > 100 µM
- TGI [55]: > 100 µM
- TGI [56]: > 100 µM

Structure (SMILES): Cn1c2c(c3ccccc31)CCN(CCCN1CCN(c3cccc(Cl)c3)CC1)C2=O
- TGI [1]: 79.9 µM
- TGI [2]: 29.9 µM
- TGI [3]: 50.8 µM
- TGI [6]: 86.2 µM
- TGI [7]: 10 µM
- TGI [8]: 38.4 µM
- TGI [11]: 35.8 µM
- TGI [12]: 83.1 µM
- TGI [13]: > 100 µM
- TGI [15]: 77.4 µM
- TGI [17]: 24.2 µM
- TGI [18]: > 100 µM
- TGI [19]: 62.4 µM
- TGI [20]: 96.8 µM
- TGI [21]: 40.1 µM
- TGI [22]: 32.2 µM
- TGI [23]: 32.1 µM
- TGI [24]: 66.1 µM
- TGI [57]: 35 µM
- TGI [25]: 11.1 µM
- TGI [26]: > 100 µM
- TGI [28]: > 100 µM
- TGI [29]: > 100 µM
- TGI [30]: 36.1 µM
- TGI [31]: 42.5 µM
- TGI [32]: 31.8 µM
- TGI [33]: 41.1 µM
- TGI [34]: 32.6 µM
- TGI [35]: 49.7 µM
- TGI [58]: 18.7 µM
- TGI [38]: > 100 µM
- TGI [39]: 29 µM
- TGI [59]: 44.4 µM
- TGI [40]: > 100 µM
- TGI [41]: > 100 µM
- TGI [42]: > 100 µM
- TGI [44]: 55.3 µM
- TGI [45]: 39.2 µM
- TGI [46]: 90.7 µM
- TGI [48]: 84.5 µM
- TGI [50]: 27.6 µM
- TGI [51]: 34.5 µM
- TGI [52]: 66.9 µM
- TGI [53]: 24.8 µM
- TGI [54]: 34.3 µM
- TGI [55]: 12.7 µM

Structure (SMILES): CC(=O)c1cccc(NC(=O)C(=O)C(C(=O)NN)c2ccccc2)c1 (configuration not stated)
- TGI [1]: > 100 µM
- TGI [2]: > 100 µM
- TGI [3]: > 100 µM
- TGI [4]: > 100 µM
- TGI [5]: > 100 µM
- TGI [6]: > 100 µM
- TGI [7]: > 100 µM
- TGI [8]: > 100 µM
- TGI [9]: > 100 µM
- TGI [11]: > 100 µM
- TGI [12]: > 100 µM
- TGI [13]: > 100 µM
- TGI [14]: > 100 µM
- TGI [15]: > 100 µM
- TGI [16]: > 100 µM
- TGI [18]: > 100 µM
- TGI [19]: > 100 µM
- TGI [20]: > 100 µM
- TGI [21]: > 100 µM
- TGI [22]: > 100 µM
- TGI [23]: > 100 µM
- TGI [24]: > 100 µM
- TGI [57]: > 100 µM
- TGI [25]: > 100 µM
- TGI [26]: > 100 µM
- TGI [28]: > 100 µM
- TGI [29]: > 100 µM
- TGI [30]: > 100 µM
- TGI [31]: > 100 µM
- TGI [32]: > 100 µM
- TGI [33]: > 100 µM
- TGI [34]: > 100 µM
- TGI [35]: > 100 µM
- TGI [58]: > 100 µM
- TGI [36]: > 100 µM
- TGI [37]: > 100 µM
- TGI [38]: > 100 µM
- TGI [39]: > 100 µM
- TGI [59]: > 100 µM
- TGI [40]: > 100 µM
- TGI [41]: > 100 µM
- TGI [42]: > 100 µM
- TGI [43]: > 100 µM
- TGI [44]: > 100 µM
- TGI [45]: > 100 µM
- TGI [46]: > 100 µM
- TGI [48]: > 100 µM
- TGI [49]: > 100 µM
- TGI [50]: > 100 µM
- TGI [51]: > 100 µM
- TGI [52]: > 100 µM
- TGI [53]: > 100 µM
- TGI [54]: > 100 µM
- TGI [55]: > 100 µM
- TGI [56]: > 100 µM

— PubChem BioAssay (NCI)
